Drawing on US20020106416A1, “Composition for inhibition of H. influenzae and treatment of otitis media and sore throat” (priority 1996, published 2002), this text covers fever and headache and sore throat for 3 compounds.

This test is described as follows: Clinical evaluation of HHT888-10 in patients with otitis media or sore throat. The test is classed as in vivo, human. To be noted: sixth patient; initial treatment with Erythromycin, Bactrium, and Naproxen together. As for the experimental part: The extract powder prepared in Example IB of Pogostemon cablin (HHT888-10) was administered orally to a patient with recurrent otitis media at a dosage of 2 g twice a day ( total 4 gms per day) for 3 days.
A sixth patient was treated for sore throat, headache and fever. […] On the fifth day, the patient was treated with HHT888-10 at 2 g b.i.d. p.o. for 2 days.

Take `COc1ccc2cc([C@H](C)C(=O)O)ccc2c1` [Naproxen]: the fever and headache entry is “subsided”; the sore throat entry is listed as “became worse”.

Consider `CC[C@H]1OC(=O)[C@H](C)[C@@H](O[C@H]2C[C@@](C)(OC)[C@@H](O)[C@H](C)O2)[C@H](C)[C@@H](O[C@@H]2O[C@H](C)C[C@H](N(C)C)[C@H]2O)[C@](C)(O)C[C@@H](C)C(=O)[C@H](C)[C@@H](O)[C@]1(C)O` [Erythromycin], for which the fever and headache result is on record as “subsided”; the sore throat entry is “became worse”.

For Bactrium, the fever and headache entry was “subsided”; the sore throat entry was “became worse”.
